Experimental data: patent publication US4130647A, “Methods for treating congestive heart failure and ischemic heart disease” (priority 1977, dated 1978)
“And” between values parts separate entries of the source, which are not always exact repeats. Identical values can stand only once.

Experiments:
[1] = tested on: patients with chronic left sided congestive heart failure; assay: Improvement of symptoms and roentgenographic pulmonary venous congestion, trimazosin (Example 3); assay type: in vivo, human
Excerpt: After baseline measurements, all 16 patients received one capsule of single-blind placebo three times daily for two weeks. The patients then received in a double-blind, randomized study trimazosin or placebo for six weeks. Eight patients received one placebo capsule three times daily for weeks one and two, two placebo capsules three times daily for weeks three and four, and three placebo capsules three times daily for weeks five and six of the double-blind period. Seven patients received one 50 mg. trimazosin capsule three times daily for weeks one and two, two 50 mg. trimazosin capsules three times daily for weeks three and four, and three 50 mg. trimazosin capsules three times daily for weeks five and six of the double-blind period. One patient (patient number five on trimazosin) received one 50 mg. trimazosin capsule three times daily for 32 days. Their trimazosin dose was not increased after two weeks of this dose because their standing systolic blood pressure was 104/70 mm. Hg.
The patients were seen by one of the investigators, questioned for symptoms, and given a physical examination in the baseline period, at the end of two weeks of single-blind placebo, and at the end of weeks one, two, three, four, five, and six on double-blind medication. […]
The data listed in Tables 1-4 were analyzed using Student's t test for independent means. […]

clinical = conditions: human, po
[2] = tested on: forearm veins of patients with congestive heart failure; assay: Forearm venous capacitance by occlusion plethysmography after trimazosin (Example 2); assay type: in vivo, human
Procedure: On the day of hemodynamic studies, diuretics and other vasodilators were withheld but maintenance digitalis doses were given in order to obtain a reasonably steady hemodynamic state. Procainamide was given to the one patient who had been taking it chronically. Right heart catheterization was performed using a triple lumen Swan-Ganz catheter which was inserted percutaneously via an antecubital or femoral vein and positioned with its tip in the pulmonary artery and the proximal lumen in the right atrium [Swan, et al,. N. Engl. J. Med., 283, 447 (1970)]. A brachial artery was cannulated with a short teflon catheter inserted over an 18-guage thin walled needle. Catheters were connected to P23Db Statham pressure transducers and pressures recorded on a Hewlett-Packard multichannel physiological recorder. Transducers were positioned at the mid-chest level with the patient supine, and all measurements were made in this position. Heart rate was monitored from the electrocardiogram. Cardiac outputs were measured by the dye-dilution method using indocyanine green injected into the pulmonary artery and sampled from the brachial artery through a Gilford densitometer connected to the recorder. Forearm venous capacitance was measured by occlusion plethysmography employing a Whitney mercury-in-rubber resistance guage [Cohen, et al., Clin. Sci., 30, 267 (1966) and Mason, et al., Circulation, 32, 756 (1965)]. For this determination, the forearm was elevated and suspended in a cradle. The venous occluding cuff was inflated to 30 mm. Hg. and forearm girth allowed to equilibrate over 2-3 minutes. The change in forearm girth at this point was taken as a measure of venous capacitance.
Hemodynamic measurements were made before and at hourly intervals for 4 hours after administration of trimazosin. […] Systemic vascular resistance was calculated as the difference between means systemic arterial and right atrial pressures divided by cardiac output. Pulmonary vascular resistance was calculated as mean pulmonary arterial pressure divided by cardiac output. […]

[3] = tested on: patients with essential hypertension; conditions: cited from earlier work
[4] = tested on: patients with congestive heart failure; assay: Dose-finding of oral trimazosin in congestive heart failure (Example 2); assay type: in vivo, human; conditions: for Change in Heart Rate at Peak / Change in Systolic Pressure at Peak / Time to Peak Effect: individual patients
Procedure: Studies were performed in male patients with clinical and radiographic evidence of congestive heart failure due to ischemic or primary cardiomyopathy. To be eligible for the study patients had to have supine systolic blood pressure of at least 100 mm. Hg. and a supine resting cardiac index below 2.5 L/min./m^2, as measured by the non-invasive carbon dioxide rebreathing method [Franciosa, et al., J. Lab. Clin. Med., 88, 662 (1976) and Franciosa, et al., Circulation, 55, 449 (1977)]. Six patients met these criteria and were selected for the study.
After obtaining written informed consent, patients were entered into a 2 day dose finding period during which single daily doses of trimazosin were given and blood pressure and heart rate monitored for 4 hours. On day one 100 mg. was given; if no response or side effects occurred, 200 mg. was given the next day. For purposes of this study a response was defined as a fall in supine blood pressure to a level equal to 0.2 × control systolic pressure +76 mm. Hg. This formula was arbitrarily chosen so that patients with control systolic blood pressure as low as 100 mm. Hg. would be included, and their pressures could be reduced to 96 mm. Hg. Upon completion to the dose finding period, no trimazosin was given for the next 24 hours to allow for washout of previous doses. After this, hemodynamic studies were performed employing the predetermined doses; if 200 mg. of trimazosin was ineffective, 300 mg. was given for hemodynamic studies.

norepinephrine = conditions: in vivo; cited from earlier work
adrenergic = assay: Adrenergic blocking activity of trimazosin
Excerpt: This observation might have important clinical implications since other vasodilators may be contraindicated in patients with compensated ischemic heart disease who may develop tachycardia and increased myocardial oxygen requirements [Sonnenblick, et al., N. Engl. J. Med., 285, 688 (1971)] in response to vasodilators.

[5] = single oral doses of 50 to 150 mg.
[6] = 200 mg. trimazosin oral, mean of 4, ns
[7] = 200 mg. trimazosin, patient no. 4

Structure (SMILES): COc1cc2c(N)nc(N3CCN(C(=O)OCC(C)(C)O)CC3)nc2c(OC)c1OC [trimazosin, 2-hydroxy-2-methylpropyl 4-(4-amino-6,7,8-trimethoxy-2-quinazolinyl)-1-piperazinecarboxylate]
- disappearance of pulmonary venous congestion on chest roentgenogram ([1]; vs. none of eight on placebo, p=0.038): Four of the eight patients
- good or excellent improvement in symptoms ([1]; vs. one of eight on placebo, p=0.020): Six of the eight patients
- half-life (clinical; in vivo): 180 to 360 min
- Tmax (clinical; plasma): 1 to 2 h
- increase in forearm venous capacitance ([2]; 2 hours after trimazosin): 35%
- forearm venous capacitance ([2]; 2 hours after trimazosin, before 0.83 ± 0.18): 1.12 ± 0.22 ml./100 gm.
- increase in forearm venous capacitance ([2]; one patient with normal pulmonary wedge pressure): 50%
- Heart Rate ([3]; hypertensives without heart failure): does not increase heart rate
- blood pressure [3, 5]: significantly lower blood pressure
- effect on heart rate [3, 5]: No significant effects
- effect on plasma renin activity [3, 5]: No significant effects
- side effect [3, 5]: Mild transient dizziness
- time of peak effect [3, 5]: between one and four hours
- time until effect was apparent [3, 5]: ≤ 30 min
- Change in Heart Rate at Peak ([4]; 100 mg. trimazosin oral): -4 beats/min. and -2 beats/min. and -15 beats/min. and -10 beats/min.
- Change in Systolic Pressure at Peak ([4]; 100 mg. trimazosin oral): -4 mm.Hg. and -22 mm.Hg. and -8 mm.Hg. and -16 mm.Hg. and -9 mm.Hg.
- Time to Peak Effect ([4]; 100 mg. trimazosin oral): 240 min and 120 min and 180 min and 90 min
- Time to Peak Effect, mean ([4]; 100 mg. trimazosin oral, mean of 6): 155.0 min
- Change in Systolic Pressure at Peak, mean ([4]; 100 mg. trimazosin oral, mean of 6, P <0.02): -10.5 mm.Hg.
- Change in Heart Rate at Peak, mean ([4]; 100 mg. trimazosin oral, mean of 6, P <0.05): -6.5 beats/min.
- desired hypotensive response ([4]; 100 mg. trimazosin, of six patients): 2 patients (nos. 5 and 6)
- Change in Heart Rate at Peak ([4]; 200 mg. trimazosin oral): 15 beats/min. and -3 beats/min. and 2 beats/min. and -1 beats/min.
- Change in Systolic Pressure at Peak ([4]; 200 mg. trimazosin oral): -21 mm.Hg. and -20 mm.Hg. and -8 mm.Hg. and -1 mm.Hg.
- Time to Peak Effect ([4]; 200 mg. trimazosin oral): 240 min and 90 min and 210 min and 180 min
- Time to Peak Effect, mean ([4]; 200 mg. trimazosin oral, mean of 4): 180.0 min
- Change in Heart Rate at Peak, mean [4, 6]: 3.3 beats/min.
- Change in Systolic Pressure at Peak, mean [4, 6]: -12.5 mm.Hg.
- systolic pressure lowered to the desired goal ([4]; 200 mg. trimazosin, of four patients): 2 patients (nos. 1 and 2)
- desired reduction in systolic pressure and side effects ([4]; 200 mg. trimazosin, patient no. 3): neither the desired reduction in systolic pressure nor side effects
- side effect [4, 7]: orthostatic light-headedness
- supine systolic pressure [4, 7]: essentially no fall
- standing systolic pressure ([4]; 200 mg. trimazosin, patient no. 4, fell from 103): 91 mm. Hg.
- digital vascular reactivity to norepinephrine infusion (norepinephrine): decreased
- norepinephrine uptake and secretion (norepinephrine): not affected
- adrenergic blocking activity (adrenergic): does not possess adrenergic blocking activity
